Laboratory results taken from PubChem BioAssay AID1549 (Sanford-Burnham Center for Chemical Genomics, 2009).
The source made the active and inactive calls. How the calls were made is not given here.

What follows are molecules tested against Influenza A virus M2 proton channel (A/TW/4845/1999 H1N1) (assay: NMR binding screen, influenza A virus M2 proton channel, Kd (AID 1549)). Conditions: M2 protein.

SMILES	Kd
COc1cc(O)c2c(=O)cc(-c3ccc(OC)c(-c4c(O)cc(O)c5c(=O)cc(-c6ccc(O)cc6)oc45)c3)oc2c1	> 4 mM (inactive)
O=C(Nc1ccccc1F)c1ccncc1	> 4 mM (inactive)
Cc1csc(CCc2nc(C)cs2)n1	> 4 mM (inactive)
c1ccc(-n2cnnc2)nc1	> 4 mM (inactive)
O=C(O)C1CSC(c2ccc(Cl)cc2)N1 (stereo not drawn)	> 4 mM (inactive)
O=C(c1nc2ccccc2s1)N1CCSCC1	> 4 mM (inactive)
COc1cc(S(=O)(=O)Nc2cccnc2)ccc1F	> 4 mM (inactive)
N#Cc1nc(-c2ccccc2Cl)oc1N1CCOCC1	> 4 mM (inactive)
COc1cc(OC)c2c(=O)c(-c3ccc4c(c3)OCO4)coc2c1	> 4 mM (inactive)
CN1C(=O)/C(=C/c2ccc(O)cc2O)SC1=S	> 4 mM (inactive)
Nc1ccnc(C(=O)O)c1	> 4 mM (inactive)
O=C(NN1C(=O)c2ccccc2C1=O)c1cccs1	> 4 mM (inactive)
CCN1CCC2(CC1)CC1CC3C=CC1(CN2C(C)=O)O3 (stereo not drawn)	> 4 mM (inactive)
C[C@H](CCC(=O)O)[C@H]1CCC2C3C(CC[C@@]21C)[C@@]1(C)CC[C@@H](O)C[C@H]1C[C@H]3O (stereo partly drawn)	> 4 mM (inactive)
CC(C)=CC1C(C(=O)O)C1(C)C (stereo not drawn)	> 4 mM (inactive)
COC(=O)N1CCN(c2ccc(OC)cc2)CC1	> 4 mM (inactive)
NC(=O)CN1C(=O)c2cccc3cccc1c23	> 4 mM (inactive)
CC(=O)O[C@@H]1CC2C(C)(C)[C@H](O)C=C[C@]2(C)C2CC[C@]3(C)C(=CC(=O)O[C@H]3c3ccoc3)[C@@]21C (stereo partly drawn)	> 4 mM (inactive)
Cc1cc(C(=O)Nc2ccc3c(c2)OCCO3)c(C)o1	> 4 mM (inactive)
Cc1cccc(N2C(=O)CCC2=O)n1	> 4 mM (inactive)
Cc1cc(O)cc(O)c1C(=O)O	> 4 mM (inactive)
COc1ccc(C(N)=O)cc1NC(C)=O	> 4 mM (inactive)
COc1cccc(-c2cc(=O)c3cc(OC)ccc3o2)c1	> 4 mM (inactive)
COCC(=O)N1CCCc2ccccc21	> 4 mM (inactive)

SMILES	Kd
O=C1CSC(=Nc2ccc(Cl)cc2)N1	> 4 mM (inactive)
CC(=O)/C=C\[C@@H]1[C@@]2(C)CCCC(C)(C)C2CC[C@@]1(C)O (stereo partly drawn)	> 4 mM (inactive)
Cc1sc2nc(-c3ccco3)oc(=O)c2c1C	> 4 mM (inactive)
CC1(C)CC(=O)c2sc(N)nc2C1	> 4 mM (inactive)
Nc1cccc(NC(=O)c2ccco2)c1	> 4 mM (inactive)
CC(=O)Nc1nnc(-c2ccncc2)s1	> 4 mM (inactive)
O=c1[nH]cnc2nc[nH]c12	> 4 mM (inactive)
Cc1cc(N2CCCC2=O)c(N)cc1N	> 4 mM (inactive)
O=c1[nH]nc(Cc2ccccn2)c2ccccc12	> 4 mM (inactive)
O=C(Nc1nc2c(s1)CCCC2)c1cccnc1	> 4 mM (inactive)
c1ccc(C[N+]23CCN(CC2)CC3)cc1	> 4 mM (inactive)
O=C(NC(=S)NC1CCS(=O)(=O)C1)c1ccccc1 (stereo not drawn)	> 4 mM (inactive)
OCCCc1nc2ccc(C(F)(F)F)cc2[nH]1	> 4 mM (inactive)
Cc1cc(C)n(-c2ccc(Cl)nn2)n1	> 4 mM (inactive)
O=C1c2ccncc2C(=O)N1CNc1ccccn1	> 4 mM (inactive)
Cn1cnc([N+](=O)[O-])c1Sc1ncnc2nc[nH]c12	> 4 mM (inactive)
O=C1C2C3CCC(O3)C2C(=O)N1c1ccccc1 (stereo not drawn)	> 4 mM (inactive)
CC(=O)NC(=S)Nc1ccccc1N1CCOCC1	> 4 mM (inactive)
NC(=O)c1cccc2c1OCCO2	> 4 mM (inactive)
CN(C)C(=O)Nc1ccc(F)cc1F	> 4 mM (inactive)
O=C(O)C1CC(C2CCCCN2)CN2CCCCC12 (stereo not drawn)	> 4 mM (inactive)
CC[C@@]1(O)C[C@H](O)c2c(cc3c(c2O)C(=O)c2c(O)ccc(O)c2C3=O)[C@H]1C(=O)OC	> 4 mM (inactive)
Cc1ccc(-c2nc(-c3cccnc3)no2)c(C)c1	> 4 mM (inactive)
O=C(NC1=NCCS1)c1ccc2snnc2c1	> 4 mM (inactive)

SMILES	Kd
CC1=CC(C)C(C(=O)O)C(C(=O)N2CCN(C)CC2)C1 (stereo not drawn)	> 4 mM (inactive)
COc1ccc2c(c1OC)C(=O)O[C@H]2[C@H]1c2cc3c(cc2CCN1C)OCO3	> 4 mM (inactive)
CN1C2CC[C@@H]1CC(OC(=O)[C@H](CO)c1ccccc1)C2 (stereo partly drawn)	> 4 mM (inactive)
OCc1ccc2c(c1)OCO2	> 4 mM (inactive)
O=C(Nc1ccc(O)cc1)N1CCOCC1	> 4 mM (inactive)
OCc1ccccc1N1CCOCC1	> 4 mM (inactive)
Cc1ccc2cc(CO)ccc2n1	> 4 mM (inactive)
O=c1n(-c2ccccc2)c(=O)n2n1CCCC2	> 4 mM (inactive)
C[C@H]1[C@H](C)CC[C@]2(C(=O)O)CC[C@]3(C)C(=CCC4[C@@]5(C)C[C@@H](O)[C@H](O)[C@@](C)(CO)C5[C@H](O)C[C@]43C)[C@H]12 (stereo partly drawn)	> 4 mM (inactive)
Cc1[nH]c2ccccc2c1Cc1n[nH]c(=S)n1C	> 4 mM (inactive)
CCn1cnc2cc([N+](=O)[O-])ccc2c1=O	> 4 mM (inactive)
COC1=C(OC)C(=O)C(C/C=C(\C)CC/C=C(\C)CC/C=C(\C)CC/C=C(/C)CC/C=C(\C)CC/C=C(\C)CC/C=C(\C)CC/C=C(\C)CC/C=C(\C)CCC=C(C)C)=C(C)C1=O	> 4 mM (inactive)
Cc1ccc(SCc2cc(=O)n3[nH]c(C)nc3n2)cc1	> 4 mM (inactive)
Nc1oncc1-c1ccccn1	> 4 mM (inactive)
COc1cc2c(cc1OC)C1=C(C#N)CCC(=O)N1CC2	> 4 mM (inactive)
CC(C)C(C)/C=C/C(C)C1CCC2C3=CC=C4CC(O)CCC4(C)C3CCC21C (stereo not drawn)	> 4 mM (inactive)
O=C1CN2C(=N1)N(Cc1ccccc1)c1ccccc12	> 4 mM (inactive)
O=C(Nc1ccccc1)Nc1ccccn1	> 4 mM (inactive)
Nc1ccc(-n2cncn2)cc1	> 4 mM (inactive)
N#Cc1c[nH]n2c(=O)cc(Cc3ccccc3)nc12	> 4 mM (inactive)
Cc1c(N=CN2CCOCC2)c(=O)n(C)c(=O)n1C	> 4 mM (inactive)
Cc1ccc2nc(SCCC#N)nc(C)c2c1	> 4 mM (inactive)
CCN1CCN(c2ncnc3c2nnn3C)CC1	> 4 mM (inactive)
C=C[C@@H](C1=CC(=O)C(OC)=C(OC)C1=O)c1ccccc1	> 4 mM (inactive)

SMILES	Kd
N#Cc1cc2ccccc2nc1N	> 4 mM (inactive)
COc1ccc(-c2nnsc2N)cc1	> 4 mM (inactive)
CC(=O)N1CCN(c2ccc(O)cc2)CC1	> 4 mM (inactive)
Nc1nnc(SCc2ccc3c(c2)OCO3)s1	> 4 mM (inactive)
Cn1c(CSc2nc3ccccc3s2)n[nH]c1=S	> 4 mM (inactive)
Nc1nc(O)c(C2=c3cc(Cl)ccc3=NC2=O)s1	> 4 mM (inactive)
Nc1nc2ccc(S(N)(=O)=O)cc2s1	> 4 mM (inactive)
Cc1cc(C(=O)Nc2ccon2)cs1	> 4 mM (inactive)
O=c1[nH]nc(Cc2ccncc2)c2ccccc12	> 4 mM (inactive)
Cc1csc2nc(N)nn12	> 4 mM (inactive)
CCc1c(C(=O)Nc2ccncc2)csc1C	> 4 mM (inactive)
Cc1nn(CC(=O)N2CCCCC2)c(=O)c2ccccc12	> 4 mM (inactive)
COC(=O)c1ccccc1N(C)S(C)(=O)=O	> 4 mM (inactive)
Oc1ccc2nonc2c1	> 4 mM (inactive)
N#Cc1cnn2c(C(F)(F)F)cc(C(F)(F)F)nc12	> 4 mM (inactive)
Nc1ccc(CN2CCS(=O)(=O)CC2)cc1	> 4 mM (inactive)
CNC(=O)c1cc(C)c(-c2ccccc2)s1	> 4 mM (inactive)
O=c1cc(-c2cc(O)c(O)c(O)c2)oc2cc(O)cc(O)c12	> 4 mM (inactive)
Cn1cc(Cl)c(C(=O)NC2CCCCCC2)n1	> 4 mM (inactive)
O=C(O)c1csc(-c2cccs2)n1	> 4 mM (inactive)
O=C(Nc1ccc(N2CCOCC2)cc1)c1cnsn1	> 4 mM (inactive)
Cc1ccn(S(=O)(=O)c2ccc(C(C)(C)C)cc2)n1	> 4 mM (inactive)
O=C(OCc1c(F)cccc1Cl)c1cnccn1	> 4 mM (inactive)
OCCNC(=S)Nc1ccccc1	> 4 mM (inactive)

SMILES	Kd
NC(=O)CCn1cnc2ccccc21	> 4 mM (inactive)
CSc1nc(C)c(Oc2ccccc2)c(=O)n1C	> 4 mM (inactive)
O=P1(O)c2ccccc2Nc2ccccc21	> 4 mM (inactive)
O=c1[nH]cnc2c1nnn2Cc1ccccc1	> 4 mM (inactive)
O=C(NCC1CCNCC1)c1ccncc1	> 4 mM (inactive)
CC(=O)O[C@H]1C[C@@H](OC(C)=O)C(C)(C)C2C[C@@H](OC(C)=O)[C@@]3(C)C4=CC(=O)O[C@@H](c5ccoc5)[C@]4(C)CCC3[C@]21C (stereo partly drawn)	> 4 mM (inactive)
OCC1=Cc2ccccc2OC1	> 4 mM (inactive)
Cc1ccc(SCC(=O)N2CCOCC2)cc1	> 4 mM (inactive)
CC(C)(O)[C@@H]1Cc2cc3ccc(=O)oc3cc2O1	> 4 mM (inactive)
Cc1nc2ccccc2c(=O)n1-c1cccc(O)c1	> 4 mM (inactive)
c1cc2c(cc1[C@H]1OC[C@H]3[C@@H]1CO[C@H]3c1ccc3c(c1)OCO3)OCO2	> 4 mM (inactive)
CC(=O)Nc1nnc(-c2ccccc2S(C)(=O)=O)o1	> 4 mM (inactive)
Cn1c(SCC(=O)NCCO)nc2ccccc2c1=O	> 4 mM (inactive)
Fc1cccc(F)c1CN1CCN(c2ncccn2)CC1	> 4 mM (inactive)
CC(=O)c1c(C)nc2ccccc2c1N	> 4 mM (inactive)
Nc1ncnc(Cl)c1[N+](=O)[O-]	> 4 mM (inactive)
Nc1ccc(S(=O)(=O)N2CCOCC2)cc1	> 4 mM (inactive)
CC(=O)NC1C(=O)Nc2c(C)cc(C)cc21 (stereo not drawn)	> 4 mM (inactive)
O=C(O)CSc1cccc2cccnc12	> 4 mM (inactive)
O=C1NC(=O)C(Cc2ccccc2)C(=O)N1	> 4 mM (inactive)
COc1c2ccoc2cc2oc(=O)ccc12	> 4 mM (inactive)
COc1ccc(N2C(=O)CCC2=O)c(OC)c1	> 4 mM (inactive)
